Where two headings read alike, the source gives them in different places. Values belong to the compound of their own block, whether it stands above or below them.
Experiments:
[1] = biological target: T1, baculovirus-expressed ALK (Homo sapiens, UniProt Q9UM73); experiment: ALK Kinase Assay (ELISA-type, time-resolved fluorescence); type: biochemical
T1 construct: host or cells: baculovirus expression system
Procedure, shortened: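 Substrate coating: phospholipase C-γ, 10 μg/mL in TBS. Kinase step: 30 ng/ml ALK, 15 min, 37° C. Detection and analysis: Eu-N1 PT66 antibody, with IC50 fitted as a sigmoidal variable-slope dose-response curve.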

[2] = biological target: T2, c-Met (cytoplasmic domain) (Homo sapiens, UniProt P08581); experiment: c-Met Kinase Assay (same methods as for ALK, with modifications); type: biochemical
T2 construct: 10 ng/mL c-Met (cytoplasmic domain, Invitrogen Corporation #PV3143); purchased Invitrogen Corporation PV3143
Procedure, shortened: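 Wells were coated with 10 μg/mL phospholipase C-γ substrate in TBS, and reactions were started with 10 ng/mL c-Met cytoplasmic domain and run at 37° C for 15 minutes. Phosphorylated product was detected with Eu-N1-labeled PT66 antibody. IC50 values came from sigmoidal variable-slope fits of percent inhibition versus log compound concentration.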

[3] = ALK kinase inhibition, 1 μM ATP (Km level), read-out: ALK Activity
[4] = c-Met kinase inhibition, 1 μM ATP (Km level), read-out: cMet Activity
[5] = 1 μM ATP (Km level), 30 ng/ml ALK, 37° C., 15 minutes, read-out: ALK Activity (ALK kinase inhibition, IC50 class)
[6] = 1 μM ATP (Km level), 10 ng/mL c-Met, read-out: cMet Activity (c-Met kinase inhibition, IC50 class)
[7] = 1 μM ATP (Km level), read-out: ALK Activity (ALK Kinase Inhibition, IC50)
[8] = 1 μM ATP (Km level), read-out: cMet Activity (c-Met Kinase Inhibition, IC50)
[9] = ALK kinase inhibition, 1 μM ATP, read-out: ALK Activity
[10] = c-Met kinase inhibition, 1 μM ATP, read-out: cMet Activity

T2 sequence (P08581 956-1390 limits assumed): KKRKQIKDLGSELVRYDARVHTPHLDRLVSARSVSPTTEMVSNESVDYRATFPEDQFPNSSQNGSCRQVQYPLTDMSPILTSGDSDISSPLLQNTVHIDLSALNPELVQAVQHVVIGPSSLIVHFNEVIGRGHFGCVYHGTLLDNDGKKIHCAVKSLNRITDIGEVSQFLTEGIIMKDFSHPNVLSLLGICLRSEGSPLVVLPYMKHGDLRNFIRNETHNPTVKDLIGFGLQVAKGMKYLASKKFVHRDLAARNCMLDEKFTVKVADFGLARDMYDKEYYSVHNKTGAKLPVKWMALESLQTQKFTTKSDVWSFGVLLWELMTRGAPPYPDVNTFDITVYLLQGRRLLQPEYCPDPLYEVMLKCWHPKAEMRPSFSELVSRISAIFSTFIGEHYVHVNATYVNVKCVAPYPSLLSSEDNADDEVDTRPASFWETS
T1 sequence (Q9UM73 19-1620): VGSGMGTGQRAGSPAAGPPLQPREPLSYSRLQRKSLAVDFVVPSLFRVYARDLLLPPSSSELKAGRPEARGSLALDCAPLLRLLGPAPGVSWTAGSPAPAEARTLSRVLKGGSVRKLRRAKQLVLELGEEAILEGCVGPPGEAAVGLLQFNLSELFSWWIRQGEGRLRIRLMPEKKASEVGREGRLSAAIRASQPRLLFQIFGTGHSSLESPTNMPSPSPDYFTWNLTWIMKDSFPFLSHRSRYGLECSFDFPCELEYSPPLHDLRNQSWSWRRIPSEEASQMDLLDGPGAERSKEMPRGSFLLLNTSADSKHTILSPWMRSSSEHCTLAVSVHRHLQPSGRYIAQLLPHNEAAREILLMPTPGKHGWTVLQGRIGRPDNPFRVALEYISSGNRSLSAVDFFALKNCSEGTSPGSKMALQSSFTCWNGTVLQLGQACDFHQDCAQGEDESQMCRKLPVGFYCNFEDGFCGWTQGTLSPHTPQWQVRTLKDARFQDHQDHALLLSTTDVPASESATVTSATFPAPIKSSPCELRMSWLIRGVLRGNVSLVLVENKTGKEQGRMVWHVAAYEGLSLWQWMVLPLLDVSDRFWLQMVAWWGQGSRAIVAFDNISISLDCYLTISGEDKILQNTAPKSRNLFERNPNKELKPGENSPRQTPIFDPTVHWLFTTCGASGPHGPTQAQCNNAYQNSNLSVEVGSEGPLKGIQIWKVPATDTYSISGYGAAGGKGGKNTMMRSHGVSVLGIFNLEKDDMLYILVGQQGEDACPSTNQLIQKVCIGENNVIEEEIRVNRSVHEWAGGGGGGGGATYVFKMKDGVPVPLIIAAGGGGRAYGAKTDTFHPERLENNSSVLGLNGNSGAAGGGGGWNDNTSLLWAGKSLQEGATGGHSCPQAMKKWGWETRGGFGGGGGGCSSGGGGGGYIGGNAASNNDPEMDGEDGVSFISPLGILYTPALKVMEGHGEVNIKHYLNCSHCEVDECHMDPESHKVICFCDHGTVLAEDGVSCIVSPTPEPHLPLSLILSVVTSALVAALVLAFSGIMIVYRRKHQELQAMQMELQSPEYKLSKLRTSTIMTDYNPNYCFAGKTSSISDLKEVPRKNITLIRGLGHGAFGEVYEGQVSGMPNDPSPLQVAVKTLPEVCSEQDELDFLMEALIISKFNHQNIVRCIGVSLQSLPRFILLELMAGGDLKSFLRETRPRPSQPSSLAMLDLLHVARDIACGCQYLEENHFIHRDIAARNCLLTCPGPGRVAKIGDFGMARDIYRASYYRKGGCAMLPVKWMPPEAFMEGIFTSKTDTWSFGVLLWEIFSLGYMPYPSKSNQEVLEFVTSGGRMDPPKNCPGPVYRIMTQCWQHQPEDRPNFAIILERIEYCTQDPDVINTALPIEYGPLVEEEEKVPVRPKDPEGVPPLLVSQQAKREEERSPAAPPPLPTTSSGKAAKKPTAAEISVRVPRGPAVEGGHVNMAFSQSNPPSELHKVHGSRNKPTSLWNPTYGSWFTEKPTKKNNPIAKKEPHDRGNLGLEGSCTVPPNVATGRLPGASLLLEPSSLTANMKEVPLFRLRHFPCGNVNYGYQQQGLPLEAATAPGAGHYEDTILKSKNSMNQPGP

Compound: CCN1C2CCC1c1cc(Nc3ncc(Cl)c(N[C@@H]4CCCC[C@H]4NS(C)(=O)=O)n3)ccc1C2 (stereo partly drawn) [Example 71, N-{(1R,2R)-2-[5-Chloro-2-(12-ethyl-12-aza-tricyclo[7.2.1.0*2,7*]dodeca-2(7),3,5-trien-4-ylamino)-pyrimidin-4-ylamino]-cyclohexyl}-methanesulfonamide]
- IC50 [1, 3]: < 100 nM
- IC50 [2, 4]: 100 to 1000 nM

Compound: CC1(C)CCCNc2ccc(Nc3ncc(Cl)c(N[C@@H]4CCCC[C@H]4NS(C)(=O)=O)n3)cc21 [Example 392, N-{(1R,2R)-2-[5-Chloro-2-(5,5-dimethyl-2,3,4,5-tetrahydro-1H-benzo[b]azepin-7-ylamino)-pyrimidin-4-ylamino]-cyclohexyl}-methanesulfonamide]
- IC50 [1, 3]: < 100 nM
- IC50 [2, 4]: 1000 to 10000 nM

Compound: CCOC(=O)N1C2CCC1c1cc(Nc3ncc(Cl)c(Nc4ccccc4C(=O)NC)n3)ccc1C2 (stereo not drawn) [Example 67, 4-[5-Chloro-4-(2-methylcarbamoyl-phenylamino)-pyrimidin-2-ylamino]-12-aza-tricyclo[7.2.1.0*2,7*]dodeca-2(7),3,5-triene-12-carboxylic acid ethyl ester]
- IC50 [1, 3]: < 100 nM
- IC50 [2, 4]: < 100 nM

Compound: CN1CCN(S(C)(=O)=O)Cc2ccc(Nc3ncc(Cl)c(Nc4ccccc4NS(C)(=O)=O)n3)cc21 [Example 474, N-{2-[5-Chloro-2-(4-methanesulfonyl-1-methyl-2,3,4,5-tetrahydro-1H-benzo[e][1,4]diazepin-8-ylamino)-pyrimidin-4-ylamino]-phenyl}-methanesulfonamide]
- IC50 [1, 3]: < 100 nM
- IC50 [2, 4]: 100 to 1000 nM

Compound: C#CCNC(=O)c1cccc(F)c1Nc1nc(Nc2ccc3c(c2)N(CC)C(=O)CCC3(C)C)ncc1Cl [Example 1405, 2-[5-Chloro-2-(1-ethyl-5,5-dimethyl-2-oxo-2,3,4,5-tetrahydro-1H-benzo[b]azepin-8-ylamino)-pyrimidin-4-ylamino]-3-fluoro-N-prop-2-ynyl-benzamide]
- IC50 [1, 5]: 100 to 1000 nM
- IC50 [2, 6]: < 100 nM

Compound: COc1cc2c(cc1Nc1ncc(Cl)c(Nc3ccccc3S(=O)(=O)C(C)C)n1)CCC(N1CCN(C)CC1)CC2 (stereo not drawn) [Example 1100, 5-Chloro-N*2*-[3-methoxy-7-(4-methyl-piperazin-1-yl)-6,7,8,9-tetrahydro-5H-benzocyclohepten-2-yl]-N*4*-[2-(propane-2-sulfonyl)-phenyl]-pyrimidine-2,4-diamine]
- IC50 [1, 5]: < 100 nM
- IC50 [2, 6]: 1000 to 10000 nM

Compound: C=CCN1CCNC(=O)c2cccc(Nc3ncc(Cl)c(Nc4ccccc4C(=O)NC)n3)c21 [Example 545, 2-[2-(1-Allyl-5-oxo-2,3,4,5-tetrahydro-1H-benzo[e][1,4]diazepin-9-ylamino)-5-chloro-pyrimidin-4-ylamino]-N-methyl-benzamide]
- IC50 [1, 7]: 1000 to 10000 nM
- IC50 [2, 8]: > 10000 nM

Compound: CNC(=O)c1ccccc1Nc1nc(Nc2ccc3c(c2Cl)C2CCC(C3)N2)ncc1Cl (stereo not drawn) [Example 81, 2-[5-Chloro-2-(3-chloro-12-aza-tricyclo[7.2.1.0*2,7*]dodeca-2(7),3,5-trien-4-ylamino)-pyrimidin-4-ylamino]-N-methyl-benzamide]
- IC50 [1, 3]: < 100 nM
- IC50 [2, 4]: 100 to 1000 nM

Compound: COc1cc2c(cc1Nc1ncc(Cl)c(Nc3ccccc3S(=O)(=O)N(C)C)n1)CCN(CCOC(=O)[C@@H](N)C(C)C)CC2 [Example 1544, (S)-2-Amino-3-methyl-butyric acid 2-{7-[5-chloro-4-(2-dimethylsulfamoyl-phenylamino)-pyrimidin-2-ylamino]-8-methoxy-1,2,4,5-tetrahydro-3-benzazepin-3-yl}-ethyl ester]
- IC50 [1, 9]: < 100 nM
- IC50 [2, 10]: 1000 to 10000 nM

Compound: CCN1CC2CCC(C1)c1cc(Nc3ncc(Cl)c(Nc4ccccc4C(=O)NC)n3)ccc12 (stereo not drawn) [Example 271, 2-[5-Chloro-2-(10-ethyl-10-aza-tricyclo[6.3.2.0*2,7*]trideca-2,4,6-trien-4-ylamino)-pyrimidin-4-ylamino]-N-methyl-benzamide]
- IC50 [1, 3]: < 100 nM
- IC50 [2, 4]: < 100 nM

Compound: CCN1C(=O)CCCc2c1ccc(Nc1ncc(Cl)c(NC3C4C=CC(C4)C3C(=O)NC(C)C)n1)c2OC (stereo not drawn) [Example 603, (2-exo-3-exo)-3-[5-Chloro-2-(1-ethyl-6-methoxy-2-oxo-2,3,4,5-tetrahydro-1H-benzo[b]azepin-7-ylamino)-pyrimidin-4-ylamino]-bicyclo[2.2.1]hept-5-ene-2-carboxylic acid isopropylamide]
- IC50 [1, 7]: 100 to 1000 nM
- IC50 [2, 8]: > 10000 nM

Next, values leading:

- IC50 [1, 5]: < 100 nM
- IC50 [2, 6]: 1000 to 10000 nM
Compound: COc1cc2c(cc1Nc1ncc(Cl)c(Nc3ccccc3S(=O)(=O)N(C)C)n1)CCN(CCN1CCOCC1)C(=O)C2 [Example 1195, 2-{5-Chloro-2-[8-methoxy-3-(2-morpholin-4-yl-ethyl)-2-oxo-2,3,4,5-tetrahydro-1H-benzo[d]azepin-7-ylamino]-pyrimidin-4-ylamino}-N,N-dimethyl-benzenesulfonamide]

- IC50 [1, 7]: < 100 nM
- IC50 [2, 8]: > 10000 nM
Compound: COc1cc2c(cc1Nc1ncc(Cl)c(Nc3ccc(N4CCN(C(C)C)CC4)c4c3C(=O)N(C)C4)n1)CCN(CC(=O)N(C)C)CC2 [Example 951, 2-(7-{5-Chloro-4-[7-(4-isopropyl-piperazin-1-yl)-2-methyl-3-oxo-2,3-dihydro-1H-isoindol-4-ylamino]-pyrimidin-2-ylamino}-8-methoxy-1,2,4,5-tetrahydro-3-benzazepin-3-yl)-N,N-dimethyl-acetamide]

- IC50 [1, 5]: 100 to 1000 nM
- IC50 [2, 6]: < 100 nM
Compound: CCNC(=O)c1cccc(F)c1Nc1nc(Nc2ccc3c(c2)CNC(=O)CCN3C(C)=O)ncc1Cl [Example 1228, 2-[2-(1-Acetyl-4-oxo-1,2,3,4,5,6-hexahydro-benzo[b][1,5]diazocin-8-ylamino)-5-chloro-pyrimidin-4-ylamino]-N-ethyl-3-fluoro-benzamide]

- IC50 [1, 5]: < 100 nM
- IC50 [2, 6]: 100 to 1000 nM
Compound: CC(C)S(=O)(=O)c1ccccc1Nc1nc(Nc2ccc3c(c2)CCC(N2CCOCC2)CC3)ncc1Cl (stereo not drawn) [Example 1036, 5-Chloro-N*2*-(7-morpholin-4-yl-6,7,8,9-tetrahydro-5H-benzocyclohepten-2-yl)-N*4*-[2-(propane-2-sulfonyl)-phenyl]-pyrimidine-2,4-diamine]

- IC50 [1, 5]: < 100 nM
- IC50 [2, 6]: > 10000 nM
Compound: COc1cc2c(cc1Nc1ncc(Cl)c(Nc3ccccc3S(=O)(=O)N(C)C)n1)CCC(NCC(F)F)CC2 (stereo not drawn) [Example 1055, 2-{5-Chloro-2-[7-(2,2-difluoro-ethylamino)-3-methoxy-6,7,8,9-tetrahydro-5H-benzocyclohepten-2-ylamino]-pyrimidin-4-ylamino}-N,N-dimethyl-benzenesulfonamide]

- IC50 [1, 7]: < 100 nM
- IC50 [2, 8]: > 10000 nM
Compound: N-((1R,2R)-2-{5-Chloro-2-[7-(2,2,2-trifluoro-ethylamino)-6,7,8,9-tetrahydro-5H-benzocyclohepten-2-ylamino]-pyrimidin-4-ylamino}-cyclohexyl)-methanesulfonamide [Example 676]

- IC50 [1, 7]: < 100 nM
- IC50 [2, 8]: 1000 to 10000 nM
Compound: COc1ccccc1Nc1nc(Nc2ccc3c(c2)CCC(NCC(F)F)CC3)ncc1Cl (stereo not drawn) [Example 663, 5-Chloro-N*2*-[7-(2,2-difluoro-ethylamino)-6,7,8,9-tetrahydro-5H-benzocyclohepten-2-yl]-N*4*-(2-methoxy-phenyl)-pyrimidine-2,4-diamine]

- IC50 [1, 3]: < 100 nM
- IC50 [2, 4]: 1000 to 10000 nM
Compound: COc1cc(N2CCOCC2)ccc1Nc1nc(Nc2ccc3c(c2)CCC(=O)CC3)ncc1Cl [Example 175, 2-[5-Chloro-4-(2-methoxy-4-morpholin-4-yl-phenylamino)-pyrimidin-2-ylamino]-5,6,8,9-tetrahydro-benzocyclohepten-7-one]

- IC50 [1, 9]: 100 to 1000 nM
- IC50 [2, 10]: < 100 nM
Compound: CNC(=O)c1cccc(F)c1Nc1nc(Nc2ccc3c(c2)N(C(=O)CN)CCCC3(C)C)ncc1Cl [Example 1617, 2-{2-[1-(2-Amino-acetyl)-5,5-dimethyl-2,3,4,5-tetrahydro-1H-benzo[b]azepin-8-ylamino]-5-chloro-pyrimidin-4-ylamino}-3-fluoro-N-methyl-benzamide]

- IC50 [1, 5]: 100 to 1000 nM
- IC50 [2, 6]: 100 to 1000 nM
Compound: C#CCNC(=O)c1cccc(F)c1Nc1nc(Nc2ccc3c(c2)NC(=O)CCC3)ncc1Cl [Example 1404, 2-[5-Chloro-2-(2-oxo-2,3,4,5-tetrahydro-1H-benzo[b]azepin-8-ylamino)-pyrimidin-4-ylamino]-3-fluoro-N-prop-2-ynyl-benzamide]

- IC50 [1, 5]: < 100 nM
- IC50 [2, 6]: > 10000 nM
Compound: CCN1C(=O)[C@H](NC(=O)C2CC2)CCc2c1ccc(Nc1ncc(Cl)c(N[C@H]3[C@@H](C(N)=O)[C@@H]4C=C[C@H]3C4)n1)c2OC (single isomer, unassigned) [Example 1357]

- IC50 [1, 9]: < 100 nM
- IC50 [2, 10]: 100 to 1000 nM
Compound: COc1cc2c(cc1Nc1ncc(Cl)c(Nc3ccccc3S(=O)(=O)N3CCCC3)n1)CCN(CC(C)O)CC2 (stereo not drawn) [Example 1553, 1-(7-{5-Chloro-4-[2-(pyrrolidine-1-sulfonyl)-phenylamino]-pyrimidin-2-ylamino}-8-methoxy-1,2,4,5-tetrahydro-3-benzazepin-3-yl)-propan-2-ol]

- IC50 [1, 7]: < 100 nM
- IC50 [2, 8]: < 100 nM
Compound: CNC(=O)c1ccccc1Nc1nc(Nc2ccc3c(c2)OCCNC3=O)ncc1Cl [Example 512, 2-[5-Chloro-2-(5-oxo-2,3,4,5-tetrahydro-benzo[f][1,4]oxazepin-8-ylamino)-pyrimidin-4-ylamino]-N-methyl-benzamide]
